Consider 2 molecules from publication PMC9245717, “Phylogenomic and functional characterization of an evolutionary conserved cytochrome P450-based insecticide detoxification mechanism in bees” (Proceedings of the National Academy of Sciences of the …, 2022).

The subject of experiment [1] is T1, Xylocopa violacea CYP9Q18.
T1 construct: recombinant, baculovirus, High-5 (Trichoplusia ni) cell microsomes; coexpressed with A. mellifera CPR (XP_006569769.1)
In words: fluorescent probe saturation kinetics, Michaelis-Menten. The note with it: NADPH; recombinant microsomes. It counts as biochemical.

Experiment [2] deals with T2, Colletes cunicularius CYP9FZ2.
T2 construct: recombinant, baculovirus, High-5 (Trichoplusia ni) cell microsomes; coexpressed with A. mellifera CPR (XP_006569769.1)
Described as above. The format is biochemical. Particulars: NADPH; recombinant microsomes.

In another experiment the test system is T3, Andrena vaga CYP9FT2.
T3 construct: recombinant, baculovirus, High-5 (Trichoplusia ni) cell microsomes; coexpressed with A. mellifera CPR (XP_006569769.1)
The description is as above. The note with it: NADPH; recombinant microsomes. The format is biochemical.

The subject of experiment [3] is T4, Melitta hemorrhoidalis CYP9FU3.
T4 construct: recombinant, baculovirus, High-5 (Trichoplusia ni) cell microsomes; coexpressed with A. mellifera CPR (XP_006569769.1)
Described as above. More on the design: species or system Melitta haemorrhoidalis. The note with it: NADPH; recombinant microsomes.

In a further experiment the target is T5, A. mellifera CYP9Q3 (Apis mellifera, UniProt A0A7M7LMV1).
T5 construct: gene LOC408453; recombinant, baculovirus, High-5 (Trichoplusia ni) cell microsomes; coexpressed with A. mellifera CPR (XP_006569769.1)
T5 sequence (A0A7M7LMV1 1-517): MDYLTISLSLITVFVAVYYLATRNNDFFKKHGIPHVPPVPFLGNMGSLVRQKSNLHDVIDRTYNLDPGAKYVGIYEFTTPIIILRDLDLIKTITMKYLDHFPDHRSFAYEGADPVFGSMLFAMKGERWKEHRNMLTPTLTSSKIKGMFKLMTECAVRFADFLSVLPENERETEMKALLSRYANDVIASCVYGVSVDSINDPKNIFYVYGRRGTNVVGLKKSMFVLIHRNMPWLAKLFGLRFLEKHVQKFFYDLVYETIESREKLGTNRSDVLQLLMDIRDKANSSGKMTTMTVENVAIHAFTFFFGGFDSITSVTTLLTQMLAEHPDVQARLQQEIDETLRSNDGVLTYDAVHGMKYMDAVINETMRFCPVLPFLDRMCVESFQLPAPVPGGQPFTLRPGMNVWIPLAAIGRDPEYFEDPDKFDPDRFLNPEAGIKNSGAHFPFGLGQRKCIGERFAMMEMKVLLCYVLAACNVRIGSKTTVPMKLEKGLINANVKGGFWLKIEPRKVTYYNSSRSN
Briefly: UPLC-MS/MS depletion and metabolite formation assay. Particulars: 10 µM substrate; NADPH regeneration system; 2 h, 30 °C; recombinant microsomes. It counts as biochemical.

On to `O=c1cc(C(F)(F)F)c2ccc(OCOCc3ccccc3)cc2o1` [BOMFC, 7-benzyloxymethoxy-4-trifluoromethyl coumarin], for which the Km in experiment [1] turned out to be 15.2 µM; in experiment [2], 14.7 µM; in the experiment on Andrena vaga CYP9FT2, 7.43 µM; in experiment [3], 8.16 µM.

For the molecule `O=C1C=C(N(Cc2ccc(Cl)nc2)CC(F)F)CO1` [flupyradifurone], the “UPLC-MS/MS depletion and metabolite formation assay” value at A. mellifera CYP9Q3 is listed as “FPF metabolite formation was remarkably uniform among all the P450s tested”.
